Measured values published in article PMC5803267, “A small molecule inhibitor of Rheb selectively targets mTORC1 signaling” (Nature Communications, 2018).

Experiments:
[1] = test system: T202/Y204pERK1/2 (Ras/ERK pathway) in MCF-7 cells; test: EGF-induced T202/Y204pERK1/2 Western blot in MCF-7 cells; type: cell-based, human; details: MCF-7 serum-starved 16 h, compound 90 min, 100 ng mL^−1 EGF
Experimental: (§1) MCF-7 cells were serum-starved for 16 h and treated with compound for 90 min before cell lysis and Western blot analysis. For insulin-stimulated cells, 100 nM insulin was added 30 min before cell lysis. For EGF-stimulated cells, 100 ng mL^−1 EGF was added 10 min before cell lysis. c Rap1 activity was detected in lysates loaded in vitro with either GDP or GTPγS and treated with NR1 at the indicated concentrations. This was followed by a subsequent pulldown of GST-RalGDS-RBD. Bound Rap1 was detected by Western blot. d Evaluation of NR1 in a LAM patient-derived cell line (TRI102) under replete and serum-starved conditions. For replete conditions, TRI102 cells were treated for 90 min with compound in DMEM + 10% FBS. For serum-starved conditions, TRI102 cells were serum-starved 16 h and then treated for 90 min with compound prior to cell lysis and Western blot analysis. e HEK293 cells co-transfected with the indicated mTOR constructs and HA-GST-S6K1 were starved of amino acids or treated with NR1. To assess mTORC1 activity, an HA IP was performed and Western blots probed for ^T389pS6K1. f Chronic treatment of PC3 cells with NR1 to evaluate the inhibition of mTORC1 (using ^T389pS6K1) versus mTORC2 (using ^S473pAKT). PC3 cells were treated with compound under replete conditions for 24 h prior to cell lysis and Western blot analysis. […]

[2] = test system: T389pS6K1 in HEK293 cells; test: T389pS6K1 in HEK293 cells transfected with WT or constitutively active mTOR mutants; type: cell-based, human; details: HEK293, 30 µM NR1 for 90 min
Experimental: as §1, with “NR1.” for “NR1. To assess mTORC1 activity, an HA IP was performed and Western blots probed for ^T389pS6K1. f Chronic treatment of PC3 cells with NR1 to evaluate the inhibition of mTORC1 (using ^T389pS6K1) versus mTORC2 (using ^S473pAKT). PC3 cells were treated with compound under replete conditions for 24 h prior to cell lysis and Western blot analysis.”
To further support Rheb as the target of NR1, we assessed whether NR1 could inhibit ^T389pS6K1 in cells transfected with constitutively active, Rheb-independent double mutants of mTOR originally described by Xu et al.[48]. […]

[3] = Aqueous solubility; type: physicochemical; details: result in words
[4] = test system: pS6K1 in MCF-7 cells; test: Insulin-stimulated mTORC1 signaling Western blot in MCF-7 cells; type: cell-based, human; details: MCF-7, 10 µM NR1
From the text: We next evaluated the activity of NR1 in cell culture. Selective inhibition of mTORC1 in cells produces a specific signaling signature characterized by a reduction in phosphorylation of the mTORC1 substrates S6K1 and 4E-BP1 and increase in phosphorylation of AKT, catalyzed by mTORC2. This distinctive profile reflects the relief of a feedback loop where active S6K1 directly phosphorylates IRS1, resulting in the degradation of IRS1 and subsequent reduction of growth factor signaling from RTKs to downstream effectors such as AKT[1]. Conversely, reduction in ^T389pS6K1 is expected to lead to an increase in ^S473pAKT levels. We used AlphaLISA assays to detect ^T389pS6K1 and ^S473pAKT in MCF-7 cells. During the development of the assays, we noticed that ^T389pS6K1 was more responsive to our compound series than ^T37/46p4E-BP1, which may be due to differences in mTORC1 substrate classes in a cellular setting. […]
MCF-7 cells were serum-starved for 16 h and treated with compound for 90 min before cell lysis and Western blot analysis. […] For EGF-stimulated cells, 100 ng mL^−1 EGF was added 10 min before cell lysis. c Rap1 activity was detected in lysates loaded in vitro with either GDP or GTPγS and treated with NR1 at the indicated concentrations. […] Bound Rap1 was detected by Western blot. d Evaluation of NR1 in a LAM patient-derived cell line (TRI102) under replete and serum-starved conditions. […]

CN(C)C(=O)c1ccc(Cn2c(C(=O)O)cc3c(Br)cc(Sc4ccc(Cl)c(Cl)c4)cc32)cc1 [NR1, 4-bromo-6-(3,4-dichlorophenylthio)-1-(4-(dimethylcarbamoyl)benzyl)-1H-indole-2-carboxylic acid]
EGF-induced phosphorylation of T202/Y204pERK1/2 [1]: did not inhibit
T389pS6K1 phosphorylation with Rheb-independent mTOR mutants [2]: no impact on pS6K1
T389pS6K1 phosphorylation with vehicle or WT mTOR [2]: reduces
aqueous solubility [3]: low aqueous solubility
S6K1 phosphorylation compared with rapamycin [4]: does not inhibit S6K1 phosphorylation as well as 100 nM rapamycin
